Each structure is given as a SMILES string.

Chain of Vasopressin V1a receptor (P37288 whole entry): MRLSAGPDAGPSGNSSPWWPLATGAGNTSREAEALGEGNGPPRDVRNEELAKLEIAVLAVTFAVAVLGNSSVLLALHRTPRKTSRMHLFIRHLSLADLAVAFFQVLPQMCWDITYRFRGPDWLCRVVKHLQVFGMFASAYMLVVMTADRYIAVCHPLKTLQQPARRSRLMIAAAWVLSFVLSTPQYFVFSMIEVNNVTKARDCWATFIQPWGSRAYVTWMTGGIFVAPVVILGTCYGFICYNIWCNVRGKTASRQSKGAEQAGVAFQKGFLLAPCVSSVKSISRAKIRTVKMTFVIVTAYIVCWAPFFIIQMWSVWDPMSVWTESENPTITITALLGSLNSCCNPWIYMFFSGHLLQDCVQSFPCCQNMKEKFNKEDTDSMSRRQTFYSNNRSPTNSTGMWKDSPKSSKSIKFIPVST
Chain of Voltage-gated inwardly rectifying potassium channel KCNH2 (Q12809 whole entry): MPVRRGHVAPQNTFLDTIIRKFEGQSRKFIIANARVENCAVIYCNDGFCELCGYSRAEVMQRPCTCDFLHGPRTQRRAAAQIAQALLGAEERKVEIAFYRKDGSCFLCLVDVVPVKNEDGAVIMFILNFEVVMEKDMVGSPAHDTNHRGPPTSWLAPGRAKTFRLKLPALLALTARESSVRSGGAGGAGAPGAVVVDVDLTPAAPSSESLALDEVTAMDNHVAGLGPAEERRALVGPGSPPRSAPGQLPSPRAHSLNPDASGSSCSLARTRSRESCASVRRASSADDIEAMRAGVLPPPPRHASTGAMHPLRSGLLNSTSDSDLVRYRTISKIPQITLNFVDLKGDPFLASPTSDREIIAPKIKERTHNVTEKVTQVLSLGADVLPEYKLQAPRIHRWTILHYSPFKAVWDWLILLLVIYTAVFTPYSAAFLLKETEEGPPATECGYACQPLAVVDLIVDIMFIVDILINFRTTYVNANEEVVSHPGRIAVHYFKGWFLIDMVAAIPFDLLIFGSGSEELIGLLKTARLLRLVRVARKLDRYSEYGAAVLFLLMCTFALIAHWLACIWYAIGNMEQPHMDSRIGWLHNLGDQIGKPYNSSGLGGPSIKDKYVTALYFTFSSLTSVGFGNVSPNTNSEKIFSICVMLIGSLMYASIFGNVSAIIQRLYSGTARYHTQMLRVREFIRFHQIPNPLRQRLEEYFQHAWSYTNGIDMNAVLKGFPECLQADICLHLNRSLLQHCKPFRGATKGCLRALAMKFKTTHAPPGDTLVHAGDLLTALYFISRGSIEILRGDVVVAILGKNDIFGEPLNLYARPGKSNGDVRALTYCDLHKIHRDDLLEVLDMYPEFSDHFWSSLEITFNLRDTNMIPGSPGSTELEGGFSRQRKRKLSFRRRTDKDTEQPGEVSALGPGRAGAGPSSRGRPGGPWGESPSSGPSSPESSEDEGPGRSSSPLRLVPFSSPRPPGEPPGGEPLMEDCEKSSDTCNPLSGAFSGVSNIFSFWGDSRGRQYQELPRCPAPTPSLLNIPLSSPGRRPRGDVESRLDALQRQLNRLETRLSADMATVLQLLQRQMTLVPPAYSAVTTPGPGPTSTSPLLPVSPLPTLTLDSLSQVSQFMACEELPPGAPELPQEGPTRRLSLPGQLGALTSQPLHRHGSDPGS

For one data set, the target named is T1, Oxytocin receptor (Homo sapiens, UniProt P30559).
T1 sequence (P30559 whole entry): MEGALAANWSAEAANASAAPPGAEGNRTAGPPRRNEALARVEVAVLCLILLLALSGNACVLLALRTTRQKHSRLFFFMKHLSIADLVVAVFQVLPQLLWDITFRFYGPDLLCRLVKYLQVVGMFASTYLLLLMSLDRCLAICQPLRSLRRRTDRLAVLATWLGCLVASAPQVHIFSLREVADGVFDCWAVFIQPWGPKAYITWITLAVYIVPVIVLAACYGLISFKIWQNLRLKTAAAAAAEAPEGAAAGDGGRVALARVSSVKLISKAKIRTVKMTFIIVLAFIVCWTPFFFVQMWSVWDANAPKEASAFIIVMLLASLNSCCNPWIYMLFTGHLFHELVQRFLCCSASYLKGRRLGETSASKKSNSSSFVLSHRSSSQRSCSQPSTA
Put plainly: Antagonist activity at human OTR expressed in HEK293 cells assessed as decrease in calcium flux measured after 10 mins in […] by Fluo-4 dye based microplate reader based assay. It is filed as functional, cell-based.
Conditions: not given
(In general: A change in cytosolic calcium serves as a functional read-out for many receptors and channels.)
As to `COCc1nnc(N2CC3CN(c4ccc(F)cc4Cl)CC32)n1-c1ccc(OC)nc1` (stereo not given), the IC50 – broadly, the concentration needed to halve the response being measured – turned out to be 850 nM.
For the molecule `COCc1nnc(N2CC3COCC3(c3ccc(F)cc3Cl)C2)n1-c1ccc(OC)nc1` (stereo not given), the IC50 is 2560 nM.
Same read-out and setting: to `COc1ccc(-n2c(COC3CCOCC3)nnc2N2C[C@@H]3C[C@]3(c3ccc(F)cc3Cl)C2)cn1` belongs 826 nM; to `CCOCc1nnc(N2C[C@@H]3C[C@]3(c3ccc(F)cc3Cl)C2)n1-c1ccc(OC)nc1`, 9.3 nM; to `COCc1nnc(N2C3CCC2CC(Oc2ccc(F)cc2Cl)C3)n1-c1ccc(OC)nc1` (stereo not given), 1230 nM.
For `COCc1nnc(C2CCN(Cc3ccc(F)cc3Cl)CC2)n1-c1ccc(OC)nc1`, the IC50 fell in the range of 2790 to 3000 nM.
The same measure, in the same setting: to `COc1ccc(-n2c(CO[C@@H]3CCOC3)nnc2N2C[C@@H]3C[C@]3(c3ccc(F)cc3Cl)C2)cn1` belongs 223 nM; to `COCc1nnc(N2CC3(CCc4cc(F)ccc4O3)C2)n1-c1ccc(OC)nc1`, 401 nM; to `COc1ccc(-n2c(CC#N)nnc2N2C[C@@H]3C[C@]3(c3ccc(F)cc3Cl)C2)cn1`, 235 nM.
With `COCc1nnc(N2CCC(c3ccc(F)cc3Cl)CC2)n1-c1ccc(OC)nc1`, the IC50 stood at 10 nM.
In the case of `COCc1nnc(N2CC3CN(c4ccc(F)cc4Cl)C3C2)n1-c1ccc(OC)nc1` (stereo not given), the IC50 amounted to 121 nM.
On to `COCc1nnc(N2CCC(c3ccc(F)cc3Cl)C2)n1-c1ccc(OC)nc1` (stereo not given), for which the IC50 came to 27 nM.
Take `COc1ccc(-n2c(CO[C@H]3CCOC3)nnc2N2C[C@@H]3C[C@]3(c3ccc(F)cc3Cl)C2)cn1`: the IC50 turned out to be 184 nM.
For the molecule `COCc1nnc(N2CC(Oc3ccc(F)cc3Cl)C2)n1-c1ccc(OC)nc1`, the half-inhibitory concentration (IC50) is 23.2 nM.
`COCc1nnc(N2CC3(C2)OCc2cc(F)ccc23)n1-c1ccc(OC)nc1`: the IC50 is 6760 nM.
As to `COCc1nnc(N2C[C@H]3C[C@@H](Oc4ccc(F)cc4Cl)C[C@H]3C2)n1-c1ccc(OC)nc1`, the IC50 was 1380 nM.
For the molecule `COCc1nnc(N2C[C@@H]3C[C@]3(c3cccc(F)c3Cl)C2)n1-c1ccc(OC)nc1`, the IC50 came to 30 nM.
On the same count and under the same terms, under `COc1ccc(-n2c(C3CC3)nnc2N2C[C@@H]3C[C@]3(c3ccc(F)cc3Cl)C2)cn1` stands 433 nM.
The same measure, in the same setting: to `COCc1nnc(N2CCN(Cc3ccc(F)cc3Cl)CC2)n1-c1ccc(OC)nc1` belongs 910 nM; to `CC[C@H](C)[C@@H]1C(=O)N[C@H](C2Cc3ccccc3C2)C(=O)N1[C@@H](C(=O)N1CCOCC1)c1ccc(C)nc1C` [EPELSIBAN], 9.2 nM.

Another data set addresses Vasopressin V1a receptor (Homo sapiens, UniProt P37288). Put plainly: Antagonist activity at human vasopressin V1A receptor expressed in HEK293 cells assessed as decrease in vasopressin-stimulated calcium flux measured after 10 mins by Fluo-4 dye based microplate reader based assay. It counts as functional, cell-based.
Conditions: not given
As to `COc1ccc(-n2c(COCCF)nnc2N2C[C@@H]3C[C@]3(c3ccc(F)cc3Cl)C2)cn1`, the IC50 was determined as 819 nM.
Turning to `COCc1nnc(N2C[C@@H]3C[C@]3(c3ccc(F)cc3Cl)C2)n1-c1ccc2c(c1)OCO2`, the IC50 is 810 nM.
As for `CCOCc1nnc(N2C[C@@H]3C[C@]3(c3ccc(F)cc3Cl)C2)n1-c1ccc(OC)nc1`, the IC50 amounted to 1760 nM.
The same measure, in the same setting: under `COc1ccc(-n2c(CO[C@@H]3CCOC3)nnc2N2C[C@@H]3C[C@]3(c3ccc(F)cc3Cl)C2)cn1` stands 1980 nM; under `COc1ccc(-n2c(CC#N)nnc2N2C[C@@H]3C[C@]3(c3ccc(F)cc3Cl)C2)cn1`, 769 nM; under `COc1ccc(-n2c(C3CC3)nnc2N2C[C@@H]3C[C@]3(c3ccc(F)cc3Cl)C2)cn1`, 11000 nM.
Still for that read-out and setting: to `COc1ccc(-n2c(C(F)F)nnc2N2C[C@@H]3C[C@]3(c3ccc(F)cc3Cl)C2)cn1` belongs 1870 nM.

Another data set deals with T2, Vasopressin V1b receptor (Homo sapiens, UniProt P47901).
T2 sequence (P47901 whole entry): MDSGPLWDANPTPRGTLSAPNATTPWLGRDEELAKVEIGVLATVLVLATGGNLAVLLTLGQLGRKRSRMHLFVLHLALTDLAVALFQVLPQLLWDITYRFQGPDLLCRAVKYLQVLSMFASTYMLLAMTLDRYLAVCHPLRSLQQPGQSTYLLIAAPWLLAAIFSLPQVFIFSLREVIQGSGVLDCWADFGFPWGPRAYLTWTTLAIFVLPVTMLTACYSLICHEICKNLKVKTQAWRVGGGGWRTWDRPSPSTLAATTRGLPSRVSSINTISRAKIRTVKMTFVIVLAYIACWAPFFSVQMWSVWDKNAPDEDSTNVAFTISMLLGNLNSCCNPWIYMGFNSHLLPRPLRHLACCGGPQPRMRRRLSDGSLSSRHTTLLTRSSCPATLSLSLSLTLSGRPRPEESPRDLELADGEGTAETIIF
The data set is described as follows: Antagonist activity at human vasopressin V1B receptor expressed in HEK293 cells assessed as decrease in vasopressin-stimulated calcium flux measured after 10 mins by Fluo-4 dye based microplate reader based assay. It counts as functional, cell-based.
Conditions: not given
With `COc1ccc(-n2c(CC#N)nnc2N2C[C@@H]3C[C@]3(c3ccc(F)cc3Cl)C2)cn1`, the IC50 came out at 44400 nM.

Tested on in a further data set: not listed separately
The data set is described as follows: Cmax in Sprague-Dawley rat at 2 mg/kg, po measured for 24 hrs by LC-MS/MS analysis. It counts as ADME, organism-based. The arrangement: dose 2 mg/kg, route oral. The following applies: in vivo.
Take `CCOCc1nnc(N2C[C@@H]3C[C@]3(c3ccc(F)cc3Cl)C2)n1-c1ccc(OC)nc1`: the peak level (Cmax) was 135 ng/mL.
Take `COCc1nnc(N2CCC(c3ccc(F)cc3Cl)CC2)n1-c1ccc(OC)nc1`: the peak level (Cmax) was 96 ng/mL. This Cmax and that of the molecule before are within 1.5-fold of each other.
Turning to `COCc1nnc(N2CCC(c3ccc(F)cc3Cl)C2)n1-c1ccc(OC)nc1` (stereo not given), the peak level (Cmax) was 204 ng/mL.
As for `COCc1nnc(N2C[C@@H]3C[C@]3(c3cccc(F)c3Cl)C2)n1-c1ccc(OC)nc1`, the highest level (Cmax) was 15 ng/mL.

Tested on in the next data set: not listed separately
The data set is described as follows: Half-life in Sprague-Dawley rat at 2 mg/kg, po measured for 24 hrs by LC-MS/MS analysis. It counts as ADME, organism-based. The conditions noted are these: in vivo.
On to `CCOCc1nnc(N2C[C@@H]3C[C@]3(c3ccc(F)cc3Cl)C2)n1-c1ccc(OC)nc1`, for which the half-life (usually the time needed for the level to fall by half in the phase considered) was 3.48 h.
As to `COCc1nnc(N2CCC(c3ccc(F)cc3Cl)CC2)n1-c1ccc(OC)nc1`, the half-life is 2.39 h.
`COCc1nnc(N2CCC(c3ccc(F)cc3Cl)C2)n1-c1ccc(OC)nc1` (stereo not given) had a half-life of 1.89 h.
In the case of `COCc1nnc(N2C[C@@H]3C[C@]3(c3cccc(F)c3Cl)C2)n1-c1ccc(OC)nc1`, the half-life was 3.15 h.

Tested on in another data set: not listed separately
The data set is described as follows: Clearance in Sprague-Dawley rat at 1 mg/kg, iv measured for 24 hrs by LC-MS/MS analysis. It is filed as ADME, organism-based. The following applies: in vivo.
Consider `CCOCc1nnc(N2C[C@@H]3C[C@]3(c3ccc(F)cc3Cl)C2)n1-c1ccc(OC)nc1`, for which the clearance – broadly, a measure of how efficiently the substance is removed, as volume per time – turned out to be 17.8 mL/min/kg.
Regarding `COCc1nnc(N2CCC(c3ccc(F)cc3Cl)CC2)n1-c1ccc(OC)nc1`, the clearance stood at 45 mL/min/kg. Against the preceding molecule, the clearance is about 2.5-fold higher.

Tested on in another data set: not listed separately
Put plainly: AUC (0 to 24 hrs) in Sprague-Dawley rat at 2 mg/kg, po by LC-MS/MS analysis. It counts as ADME, organism-based. Also noted: time < 24 hr, dose 2 mg/kg, route oral. The following applies: in vivo.
For `CCOCc1nnc(N2C[C@@H]3C[C@]3(c3ccc(F)cc3Cl)C2)n1-c1ccc(OC)nc1`, the AUC(0-t) (in general, exposure summed from dosing to a finite time, without extrapolation to infinity) at 24 h is 1020 ng·h/mL.
Still for that read-out and setting: to `COCc1nnc(N2CCC(c3ccc(F)cc3Cl)CC2)n1-c1ccc(OC)nc1` belongs 767 ng·h/mL; to `COCc1nnc(N2CCC(c3ccc(F)cc3Cl)C2)n1-c1ccc(OC)nc1` (stereo not given), 478 ng·h/mL; to `COCc1nnc(N2C[C@@H]3C[C@]3(c3cccc(F)c3Cl)C2)n1-c1ccc(OC)nc1`, 34 ng·h/mL.

Another data set addresses Voltage-gated inwardly rectifying potassium channel KCNH2 (Homo sapiens, UniProt Q12809). The data set is described as follows: Inhibition of human ERG.
Conditions: not given
Consider `CCOCc1nnc(N2C[C@@H]3C[C@]3(c3ccc(F)cc3Cl)C2)n1-c1ccc(OC)nc1`, for which the midpoint of inhibition, the IC50, lay at 6100 nM.

Tested on in the next data set: not listed separately
Put plainly: Unbound fraction in Sprague-Dawley rat plasma by LC-MS/MS analysis. It is filed as ADME, cell-free.
Conditions: not given
Consider `COCc1nnc(N2CC(Oc3ccc(F)cc3Cl)C2)n1-c1ccc(OC)nc1`, for which the fraction unbound (as a rule, free concentration divided by total concentration) worked out at 0.0664.

Tested on in the next data set: not listed separately
Put plainly: Unbound fraction in Sprague-Dawley rat brain by LC-MS/MS analysis. It is filed as ADME, tissue-based.
Conditions: not given
Molecule `COCc1nnc(N2CC(Oc3ccc(F)cc3Cl)C2)n1-c1ccc(OC)nc1` showed a fraction unbound of 0.0165.

Tested on in another data set: not listed separately
The data set is described as follows: Plasma concentration in Sprague-Dawley rat by LC-MS/MS analysis. It is filed as ADME, cell-free.
Conditions: not given
In turn, `COCc1nnc(N2CC(Oc3ccc(F)cc3Cl)C2)n1-c1ccc(OC)nc1` yielded a Cp of 699 ng/mL.

Tested on in the next data set: not listed separately
The data set is described as follows: Drug concentration in Sprague-Dawley rat brain by LC-MS/MS analysis. It is filed as ADME, tissue-based. The following applies: in vivo.
Molecule `COCc1nnc(N2CC(Oc3ccc(F)cc3Cl)C2)n1-c1ccc(OC)nc1` registered a Ct of 179 ng/g.

Tested on in another data set: not listed separately
Put plainly: Unbound brain-to-plasma concentration ratio in Sprague-Dawley rat by LC-MS/MS analysis. It is filed as ADME, cell-free. The following applies: read-out: K(p,uu,brain).
For `COCc1nnc(N2CC(Oc3ccc(F)cc3Cl)C2)n1-c1ccc(OC)nc1`, the Kp uu was 0.064.

In another data set the test system is Rattus norvegicus. The data set is described as follows: Anti-premature ejaculation activity in anesthetized oxytocin-induced uterine contraction Sprague-Dawley rat model assessed as decrease in intraluminal uterine pressure at 30 mg/kg, po treated for 20 mins and 1 hr later treated with oxytocin and measured for 15 to 30 mins relative to control. It counts as functional.
Conditions: not given
In the case of `COCc1nnc(N2CC(Oc3ccc(F)cc3Cl)C2)n1-c1ccc(OC)nc1`, the inhibition in vivo – broadly, how much of the control response was suppressed – at 30 mg/kg came to 76.5%.

Tested on in a further data set: not listed separately
The data set is described as follows: AUC (0 to 24 hrs) in anesthetized oxytocin-induced uterine contraction Sprague-Dawley rat model at 30 mg/kg, po. It counts as ADME, organism-based. The arrangement: dose 30 mg/kg, time < 24 hr, route oral. The following applies: in vivo.
For the molecule `COCc1nnc(N2CC(Oc3ccc(F)cc3Cl)C2)n1-c1ccc(OC)nc1`, the area under the curve AUC(0-t) at 24 h is 39500 ng·h/mL.
